In patent US20260130901A1, “CGRP RECEPTOR ANTAGONIST FOR THE TREATMENT OF MIGRAINE” (ALLERGAN PHARMACEUTICALS INTERNATIONAL LIMITED, priority 2022, published 2026):

Tests used:
Format in all cases: in vivo, human
[1] = system: participants with migraine (qualifying prodrome events); test: Phase 3 crossover study: ability to function normally (Functional Disability Scale); settings: 100 mg in prodrome, mITT
Method: (§1) A phase 3, multicenter, randomized, double-blind, placebo-controlled, crossover study was carried out to evaluate the efficacy, safety, and tolerability of oral ubrogepant in the acute treatment of migraine when administered during the prodrome. The study evaluated whether treatment during the initial phase of a migraine attack (i.e., the prodrome or premonitory phase) prior to the onset of headache, can attenuate the severity of the headache phase and reduce disability.
(§2) Eligible participants were randomized (1:1) to treatment sequences A or B in this crossover study. Participants randomized to Treatment Sequence A received placebo to treat their first qualifying prodrome event and ubrogepant 100 mg to treat their second qualifying prodrome event. For those randomized to Treatment Sequence B, they received the reverse: ubrogepant 100 mg to treat their first qualifying prodrome event and placebo to treat their second qualifying prodrome event.
The primary efficacy endpoint was the absence of a headache of moderate/severe intensity within 24 hours after taking double-blind study intervention during the prodrome. The secondary efficacy endpoints were the absence of a headache of moderate or severe intensity within 48 hours, ability to function normally over 24 hours, and absence of a headache of any intensity within 24 hours after taking double blind study interventions during the prodrome.
A responder for ability to function normally is a participant having a score of 0 (no disability, able to function normally) on the Functional Disability Scale (FDS), and a non-responder is one having a score of 1 (Mildly impaired, can still do everything but with difficulty) to 3 (Severely impaired, cannot do all or most things, bed rest may be necessary).

[2] = system: participants with migraine (qualifying prodrome events); test: Phase 3 crossover study: safety and tolerability, adverse events (safety population)
Method: as §1, §2
Participant flow is illustrated in FIG. 2. The safety population included all treated participants who took at least one administration of study drug. The modified intent-to-treat (mITT) population included all randomized participants with at least one assessment of headache occurrence within 24 hours after taking double-blind study drug for at least one qualifying prodrome event. The most common reasons for failure to meet inclusion criteria were: lack of 3 to 16 recorded qualifying prodrome events during screening (144 of 317), failure to report headache of any intensity within 1 to 6 hours following at least 75% of qualifying prodrome events (123 of 317), and participant provided a negative response for the ability (by history) to identify migraine attacks in which prodromal symptoms were present and reliably (at least 75% of the time) followed by headache within 1 to 6 hours (23 of 317
Tables 20 and 21 provide an overall summary of adverse events during the double-blind treatment period for the safety population.
The most common TEAEs (≥2% in either treatment group) within 48 hours following administration of study intervention were nausea (placebo 15 of 462 [3.2%], ubrogepant 23 of 456 [5.0%]); dizziness (placebo 12 of 462 [2.6%], ubrogepant 11 of 456 [2.4%]), fatigue (placebo 7 of 462 [1.5%], ubrogepant 12 of 456 [2.6%]) and somnolence (placebo 5 of 462 [1.1%], ubrogepant 11 of 456 [2.4%]). Nausea (placebo 3.7%, ubrogepant 5.3%) was also the most common TEAE within 30 days following administration of study intervention.

[3] = system: participants with migraine (qualifying prodrome events); test: Phase 3 crossover study: activity limitation at 24 hours; settings: 100 mg in prodrome, at 24 hours post-dose
Method: as §1, §2

[4] = 100 mg, within 48 hours following administration
[5] = 100 mg, within 48 hours following administration, safety population
[6] = ubrogepant 100 mg (N = 456), within 48 hours following administration, safety population
[7] = ubrogepant 100 mg (N = 456), within 30 days following administration, safety population

For `C[C@@H]1[C@H](c2ccccc2)C[C@H](NC(=O)c2cnc3c(c2)C[C@@]2(C3)C(=O)Nc3ncccc32)C(=O)N1CC(F)(F)F` [Ubrogepant, (3′S)—N-((3S,5S,6R)-6-methyl-2-oxo-5-phenyl-1-(2,2,2-trifluoroethyl)piperidin-3-yl)-2′-oxo-1′,2′,5,7-tetrahydrospiro[cyclopenta[b]pyridine-6,3′-pyrrolo[2,3-b]pyridine]-3-carboxamide], the “Ability to function normally, Nonresponder (%)” value (“Ability … Nonresponder (%)” for short) ([1]; 1 hour post dose) was “(74.4) %”, the “Ability to function normally, Odds Ratio vs. Placebo” value ([1]; 1 hour post dose) was 1.29 and the “Ability to function normally, Responder (%)” value ([1]; 1 hour post dose) was “(25.6) %”. For the same molecule, the “Ability … Nonresponder (%)” value ([1]; 2 hours post dose) was “(63.0) %”, the “Ability to function normally, Odds Ratio vs. Placebo” value ([1]; 2 hours post dose) was 1.73 and the “Ability to function normally, Responder (%)” value ([1]; 2 hours post dose) was “(37.0) %”. The “Ability to function normally, Responder (%)” value ([1]; 2 hours post dose, listed as ubrogepant) was 37.0%, the “Ability … Nonresponder (%)” value ([1]; 3 hours post dose) was “(51.7) %” and the “Ability to function normally, Odds Ratio vs. Placebo” value ([1]; 3 hours post dose) was 1.71. For the same molecule, the “Ability to function normally, Responder (%)” value ([1]; 3 hours post dose) was “(48.3) %”, the “Ability … Nonresponder (%)” value ([1]; 4 hours post dose) was “(41.0) %” and the “Ability to function normally, Odds Ratio vs. Placebo” value ([1]; 4 hours post dose) was 1.97. The “Ability to function normally, Responder (%)” value ([1]; 4 hours post dose) was “(59.0) %”, the “Ability … Nonresponder (%)” value ([1]; 6 hours post dose) was “(32.7) %” and the “Ability to function normally, Odds Ratio vs. Placebo” value ([1]; 6 hours post dose) was 1.78. For the same molecule, the “Ability to function normally, Responder (%)” value ([1]; 6 hours post dose) was “(67.3) %”, the “Ability … Nonresponder (%)” value ([1]; 8 hours post dose) was “(25.0) %” and the “Ability to function normally, Odds Ratio vs. Placebo” value ([1]; 8 hours post dose) was 1.84. For the same molecule, the “Ability to function normally, Responder (%)” value ([1]; 8 hours post dose) was “(75.0) %”, the “Ability … Nonresponder (%)” value ([1]; 24 hours post dose) was “(11.1) %” and the “Ability to function normally, Odds Ratio vs. Placebo” value ([1]; 24 hours post dose) was 1.41. The “Ability to function normally, Responder (%)” value ([1]; 24 hours post dose) was “(88.9) %”, the “Ability to function normally over 24 hours, Geometric Mean Odds Ratio vs. Placebo” value ([1]; overall, all timepoints through 24 hours) was 1.66 and the “Safety results” value ([2]; 100 mg in prodrome) was “generally consistent with the known safety profile of ubrogepant”. For the same molecule, the “Tolerability” value ([2]; 100 mg in prodrome) was “well-tolerated”, the “nausea, fatigue, dizziness, and somnolence, % of participants reporting” value ([2]; 100 mg in prodrome) was ≤ 5% and the “TEAE dizziness, % of participants” value [2, 4] was 2.4%. The “TEAE fatigue, % of participants” value [2, 4] was 2.6%, the “TEAE nausea, % of participants” value [2, 4] was 5.0% and the “TEAE somnolence, % of participants” value [2, 4] was 2.4%. For the same molecule, the “Adverse event leading to discontinuation (ADO), % of participants” value [2, 5] was “(0.0) %”, the “Death, % of participants” value [2, 5] was “(0.0) %” and the “Treatment-emergent Serious adverse events (TESAE), % of participants” value [2, 5] was “(0.0) %”. For the same molecule, the “Treatment-emergent adverse events (TEAE), % of participants” value [2, 5] was “(16.9) %”, the “Treatment-related TEAEs, % of participants” value [2, 5] was “(13.2) %” and the “Treatment-related TESAEs, % of participants” value [2, 5] was “(0.0) %”. The “TEAE nausea, % of participants” value ([2]; 100 mg, within 30 days following administration) was 5.3%, the “Discontinuation during the DB treatment period due to adverse events” value ([2]; safety population) was “No participant was discontinued” and the “TEAE Dizziness, %” value [2, 6] was “(2.4) %”. For the same molecule, the “TEAE Fatigue, %” value [2, 6] was “(2.6) %”, the “TEAE Nausea, %” value [2, 6] was “(5.0) %” and the “TEAE Somnolence, %” value [2, 6] was “(2.4) %”. The “Adverse event leading to discontinuation (ADO), %” value [2, 7] was “(0.0) %”, the “Death, %” value [2, 7] was “(0.0) %” and the “TEAE Dizziness, %” value [2, 7] was “(2.4) %”. For the same molecule, the “TEAE Fatigue, %” value [2, 7] was “(2.6) %”, the “TEAE Nausea, %” value [2, 7] was “(5.3) %” and the “TEAE Somnolence, %” value [2, 7] was “(2.4) %”. The “Treatment-emergent Serious adverse events (TESAE), %” value [2, 7] was “(0.0) %”, the “Treatment-emergent adverse events (TEAE), %” value [2, 7] was “(19.7) %” and the “Treatment-related TEAEs, %” value [2, 7] was “(13.2) %”. The “Treatment-related TESAEs, %” value [2, 7] was “(0.0) %”, the “Activity limitation, Odds ratio vs placebo” value [3] was 2.07 and the “Activity limitation, Responders (%) (not at all limited or a little limited)” value [3] was “(65.4) %”. The “Activity limitation, Responders (%) (not at all limited or a little limited)” value ([3]; listed as ubrogepant) was 65.4%.
